In paper PMC10099666, “Structure Elucidation, Total Synthesis, Antibacterial In Vivo Efficacy and Biosynthesis Proposal of Myxobacterial Corramycin” (Angewandte Chemie (International Ed. in English), 2022):
≈ marks a conversion by molar mass, not a printed value. *1 amine or outer side, *2 acyl side, *3 side chain or, on linkers, in order; H or OH if unused. Where a SMILES comes first, the peptide text is derived from it. [ ]: non-standard residue; d: D form. The star is where a group is joined. Ava(2S,3R-(OH)2,4S-OMe) = CO[C@@H](CN[*:1])[C@H](O)[C@H](O)C(=O)[*:2]; dHis(βS-OH,π-Me) = Cn1cncc1[C@@H](O)[C@@H](N)C(=O)O; Butanoyl(2R-OH,3S-OH) = C[C@H](O)[C@@H](O)C(=O)*; Val(3-OH) = CC(C)(O)[C@H](N)C(=O)O; NMeF = CN[C@@H](Cc1ccccc1)C(=O)O

How the values were obtained:
[1] = tested on: Salmonella typhimurium ATCC13311; format: cell-based; conditions: strain ATCC13311; CAMHB, CLSI/EUCAST broth microdilution, 5x10^5 CFU mL-1, 20-22 h, duplicates
Experimental: (§1) 5. Determination of the minimal inhibitory concentration (MIC) in vitro The MIC of Corramycin was evaluated following the Clinical & Laboratory Standard Institute (CLSI; https://clsi.org) and EUCAST (https://eucast.org) guidelines. First, inoculi of the bacterial test strains were prepared by culturing isolated colonies in cation-adjusted Müller Hinton broth (CAMHB; 2 g L-1 beef infusion solids, 1.5 g L-1 starch, 17.5 g L-1 casein hydrolysates, final pH 7.4) at 37 °C and 180 rpm for 18 h. Next, Corramycin, which was dissolved in DMSO, was transferred into the first row of a 96-well plate to reach an end concentration of 64 µg mL-1 (in 100 µL total volume). A 1:1 serial dilution in cation-adjusted Mueller Hinton broth (CAMHB) of the test compound was done from the top row to the bottom row of the 96-well plate to reach an end concentration of 0.125 µg mL-1 in the bottom row. Afterwards, the respective test strains were transferred into the wells, reaching a total volume of 100 µL and 5x10^5 colony-forming units (CFU) mL-1. After a 20 to 22 h of incubation, the optical density was evaluated on a microplate reader and the MIC endpoint was determined as the lowest concentration of antibiotic at which there was no visible growth observed. Each MIC experiment was performed in duplicates. Table S 4 depicts the MIC values of Corramycin against all bacterial strains tested in this study. […]

[2] = tested on: Klebsiella pneumoniae 1705966; format: cell-based; conditions: strain 1705966; CAMHB, CLSI/EUCAST broth microdilution, 5x10^5 CFU mL-1, 20-22 h, duplicates
Experimental: as §1

[3] = tested on: Escherichia coli DSM46345; format: cell-based; conditions: strain DSM46345; CAMHB, CLSI/EUCAST broth microdilution, 5x10^5 CFU mL-1, 20-22 h, duplicates
Experimental: (§2) 5. Determination of the minimal inhibitory concentration (MIC) in vitro The MIC of Corramycin was evaluated following the Clinical & Laboratory Standard Institute (CLSI; https://clsi.org) and EUCAST (https://eucast.org) guidelines. First, inoculi of the bacterial test strains were prepared by culturing isolated colonies in cation-adjusted Müller Hinton broth (CAMHB; 2 g L-1 beef infusion solids, 1.5 g L-1 starch, 17.5 g L-1 casein hydrolysates, final pH 7.4) at 37 °C and 180 rpm for 18 h. Next, Corramycin, which was dissolved in DMSO, was transferred into the first row of a 96-well plate to reach an end concentration of 64 µg mL-1 (in 100 µL total volume). A 1:1 serial dilution in cation-adjusted Mueller Hinton broth (CAMHB) of the test compound was done from the top row to the bottom row of the 96-well plate to reach an end concentration of 0.125 µg mL-1 in the bottom row. Afterwards, the respective test strains were transferred into the wells, reaching a total volume of 100 µL and 5x10^5 colony-forming units (CFU) mL-1. After a 20 to 22 h of incubation, the optical density was evaluated on a microplate reader and the MIC endpoint was determined as the lowest concentration of antibiotic at which there was no visible growth observed. Each MIC experiment was performed in duplicates. Table S 4 depicts the MIC values of Corramycin against all bacterial strains tested in this study.
(§3) Table S 4. MIC values of Corramycin against all bacterial strains tested in this study. […]

[4] = tested on: Enterococcus faecium DSM17050; format: cell-based; conditions: strain DSM17050; CAMHB, CLSI/EUCAST broth microdilution, 5x10^5 CFU mL-1, 20-22 h, duplicates
Experimental: as §2, §3

[5] = tested on: Escherichia coli MG1655 WT; format: cell-based; conditions: strain MG1655 WT; CAMHB, CLSI/EUCAST broth microdilution, 5x10^5 CFU mL-1, 20-22 h, duplicates
Experimental: as §2, §3

[6] = tested on: Escherichia coli 1705863; format: cell-based; conditions: strain 1705863; CAMHB, CLSI/EUCAST broth microdilution, 5x10^5 CFU mL-1, 20-22 h, duplicates
Experimental: as §2, §3

[7] = tested on: Klebsiella pneumoniae 1705949; format: cell-based; conditions: strain 1705949; CAMHB, CLSI/EUCAST broth microdilution, 5x10^5 CFU mL-1, 20-22 h, duplicates
Experimental: as §2, §3

[8] = format: in vivo; conditions: single i.v. bolus 30 mg kg-1, male Swiss mice, LC/MS-MS, three animals per sampling time
Experimental: However, despite this rapid elimination, the antibacterial effect was strong enough in the animals to achieve survival after a single day of treatment.
Figure S 71. A) Blood bacteremia experiment. E. coli ATCC35218 CFU load after treatment of infected mice with 10 mg kg-1, 20 mg kg-1 or 30 mg kg-1 Corramycin. B) Survival of the E. coli ATCC35218 infected mice in %, after one day of treatment with either 0.9 % NaCl (negative control), Tienam (15 mg kg-1 Imipenem; positive control) or Corramycin in three different doses (10 mg kg-1, 20 mg kg-1 or 30 mg kg-1).
14.2 Corramycin elimination experiment
Native Corramycin systemic exposure was determined following a single intravenous (30 mg kg-1 expressed as active compound) bolus administration to male Swiss mice. […]
Lung, brain, kidney, heart and liver were collected at each sampling time (5 min, 0.5, 1, 2, 4, 6, 8 and 24 h post administration) pooled per sampling time, weighed and frozen at -20 °C until analysis. Native Corramycin was quantified in the plasma and tissues using an exploratory LC/MS-MS assay method in Early Bioanalysis Group of Toulouse (Montpellier DSAR Operational Center), France. […] The pharmacokinetic parameters were calculated from the arithmetic mean of the plasma concentrations or the tissue concentrations (lung, brain, kidney, heart and liver) using the program WinNonLin 5.2, non-compartmental models 200 and 201. […]

[9] = tested on: mammalian cell lines

Work on CO[C@@H](CNC(=O)[C@H](NC(=O)[C@H](O)[C@H](C)O)[C@H](O)c1cncn1C)[C@H](O)[C@H](O)C(=O)N(C)[C@@H](Cc1ccccc1)C(=O)NCC(=O)N[C@H](C(=O)N[C@@H](CO)C(=O)N[C@H](C(=O)N[C@@H](CC(C)C)C(=O)N[C@@H](CO)C(=O)O)C(C)(C)O)C(C)(C)O [Corramycin] ({Butanoyl(2R-OH,3S-OH)}-[dHis(βS-OH,π-Me)][Ava(2S,3R-(OH)2,4S-OMe)][NMeF]G[Val(3-OH)]S[Val(3-OH)]LS-OH) yielded an MIC [1] of 4 µg/mL (≈ 3.38 µM), an MIC [2] greater than 64 µg/mL and an MIC [3] of 32 µg/mL (≈ 27 µM). The MIC [4] was 64 µg/mL (≈ 54 µM), the MIC [5] was 8 to 16 µg/mL and the MIC [6] was 8 µg/mL (≈ 6.76 µM). For the same compound, the MIC [7] was 64 µg/mL (≈ 54 µM), the “Time of plasma concentration above the MIC after i.v. administration” value [8] was “less than 30 minutes” and the Cytotoxicity [9] was “no cytotoxicity”.
